Values joined by “and” are separate entries in the source; they are usually repeats but may differ in a detail not shown here. Equal values may be shown once.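 How tested: cells in 96-well plates exposed to compound for 48 hours at five concentrations. Here, GI50 denotes the concentration required for 50% inhibition of growth. TGI denotes the concentration required for complete inhibition of growth.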
Columns and labels:
Test in all cases: NCI tumour cell line growth inhibition, 48 h
[1] = test system: BT-549 breast
[2] = test system: DMS 273 small cell lung
[3] = test system: HCC-2998 colon
[4] = test system: KM20L2 colon
[5] = test system: MALME-3M melanoma
[6] = test system: MDA-MB-231 breast
[7] = test system: RPMI-8226 leukemia
[8] = test system: SK-MEL-5 melanoma
[9] = test system: SR leukemia
[10] = test system: RXF 393 renal

SMILES | TGI [1] | GI50 [2] | TGI [2] | TGI [3] | TGI [4] | TGI [5] | GI50 [6] | TGI [6] | TGI [7] | GI50 [8] | TGI [8] | TGI [9] | GI50 [3] | GI50 [4] | GI50 [5] | GI50 [7] | GI50 [10]
CCc1ccc(NCc2cc(OC)c(OC)c(OC)c2)cc1 | > 100000 nM and 34800 nM | 190 nM and 628 nM | 13000 nM | 11000 nM and 12100 nM | 1320 nM and 1640 nM | 30800 nM and 35600 nM | 1270 nM | > 100000 nM | 40700 nM and 52000 nM | 297 nM and 104 nM | 7840 nM and 14700 nM | 44600 nM and > 100000 nM |  |  |  |  | 
CC[C@](C)(O)C(=O)O[C@H]1C(=O)O[C@@H]2C[C@H]3C(C)=CC(=O)[C@@H](O)[C@]3(C)[C@H]3[C@@]4(O)OC[C@]32[C@@H]1[C@@H](C)[C@H]4O | 6760 nM | 12.7 nM | 42.5 nM and 205 nM | 469 nM and 316 nM | 4770 nM and 16900 nM | 137 nM |  | 4340 nM |  |  | 136 nM | 2550 nM | 120 nM | 267 nM and 136 nM | 33.7 nM | 92.8 nM | 285 nM
